The nature of this test: Evaluated for the activation of human thrombin receptor measured by platelet aggregation.

Where a SMILES comes first, the peptide text is derived from it. [ ]: non-standard residue; d: D form. Phe(F5) = N[C@@H](Cc1c(F)c(F)c(F)c(F)c1F)C(=O)O; Phe(4-CH2NH2) = NCc1ccc(C[C@H](N)C(=O)O)cc1; Phe(4-NH2) = Nc1ccc(C[C@H](N)C(=O)O)cc1; Phe(4-F) = N[C@@H](Cc1ccc(F)cc1)C(=O)O; 2Nal = N[C@@H](Cc1ccc2ccccc2c1)C(=O)O; NMeR = CN[C@@H](CCCNC(=N)N)C(=O)O; hPhe = N[C@@H](CCc1ccccc1)C(=O)O; Cha = N[C@@H](CC1CCCCC1)C(=O)O; NMeL = CN[C@@H](CC(C)C)C(=O)O

The term EC50 denotes the concentration giving half of the maximal effect. As to `CC(C)C[C@H](NC(=O)[C@H](CC(C)C)NC(=O)[C@H](Cc1ccc(F)cc1)NC(=O)[C@H](C)N)C(=O)N[C@@H](CCCNC(=N)N)C(N)=O` [(S)-2-[(S)-2-((S)-2-Amino-propionylamino)-3-(4-fluoro-phenyl)-propionylamino]-4-methyl-pentanoic acid [(S)-1-((S)-1-carbamoyl-4-guanidino-butylcarbamoyl)-3-methyl-butyl]-amide] (H-A[Phe(4-F)]LLR-NH2), the EC50 is 0.2 µM. Take `CC(C)C[C@H](NC(=O)[C@H](Cc1ccc(F)cc1)NC(=O)[C@H](C)N)C(=O)N[C@@H](CCCNC(=N)N)C(=O)N[C@@H](CCCNC(=N)N)C(N)=O` [(S)-2-[(S)-2-((S)-2-Amino-propionylamino)-3-(4-fluoro-phenyl)-propionylamino]-4-methyl-pentanoic acid [(S)-1-((S)-1-carbamoyl-4-guanidino-butylcarbamoyl)-4-guanidino-butyl]-amide] (H-A[Phe(4-F)]LRR-NH2): it took 40 µM to reach a half-maximal effect (EC50). The figure for `COc1ccc(C[C@H](NC(=O)[C@H](C)N)C(=O)N[C@@H](CC(C)C)C(=O)N[C@@H](CC(C)C)C(=O)N[C@@H](CCCNC(=N)N)C(N)=O)cc1` [(S)-2-[(S)-2-((S)-2-Amino-propionylamino)-3-(4-methoxy-phenyl)-propionylamino]-4-methyl-pentanoic acid [(S)-1-((S)-1-carbamoyl-4-guanidino-butylcarbamoyl)-3-methyl-butyl]-amide] (H-AY(Me)LLR-NH2) is 21.4 µM; for `CC(C)C[C@H](NC(=O)[C@H](CC(C)C)NC(=O)[C@H](CC1CCCCC1)NC(=O)[C@H](C)N)C(=O)N[C@@H](CCCNC(=N)N)C(N)=O` [(S)-2-[(S)-2-((S)-2-Amino-propionylamino)-3-cyclohexyl-propionylamino]-4-methyl-pentanoic acid [(S)-1-((S)-1-carbamoyl-4-guanidino-butylcarbamoyl)-3-methyl-butyl]-amide] (H-A[Cha]LLR-NH2) it is 28 µM. As for `CC(C)C[C@H](NC(=O)[C@H](CC(C)C)NC(=O)[C@H](Cc1ccc2ccccc2c1)NC(=O)[C@H](C)N)C(=O)N[C@@H](CCCNC(=N)N)C(N)=O` [(S)-2-[(S)-2-((S)-2-Amino-propionylamino)-3-naphthalen-2-yl-propionylamino]-4-methyl-pentanoic acid [(S)-1-((S)-1-carbamoyl-4-guanidino-butylcarbamoyl)-3-methyl-butyl]-amide] (H-A[2Nal]LLR-NH2), the EC50 is 19 µM. The compound `CC(C)C[C@H](NC(=O)[C@H](CC(C)C)NC(=O)[C@H](Cc1c(F)c(F)c(F)c(F)c1F)NC(=O)[C@H](C)N)C(=O)N[C@@H](CCCNC(=N)N)C(N)=O` [(S)-2-[(S)-2-((S)-2-Amino-propionylamino)-3-pentafluorophenyl-propionylamino]-4-methyl-pentanoic acid [(S)-1-((S)-1-carbamoyl-4-guanidino-butylcarbamoyl)-3-methyl-butyl]-amide] (H-A[Phe(F5)]LLR-NH2) returned an EC50 of 600 µM.

In the case of `CC(C)C[C@H](NC(=O)[C@H](Cc1ccccc1)NC(=O)[C@H](C)N)C(=O)N[C@@H](CC1CCCCC1)C(=O)N[C@@H](CCCNC(=N)N)C(N)=O` [(S)-2-[(S)-2-((S)-2-Amino-propionylamino)-3-phenyl-propionylamino]-4-methyl-pentanoic acid [(S)-1-((S)-1-carbamoyl-4-guanidino-butylcarbamoyl)-2-cyclohexyl-ethyl]-amide] (H-AFL[Cha]R-NH2), the concentration for a half-maximal effect (EC50) stood at 0.4 µM.

`CC(C)C[C@H](NC(=O)[C@H](CC(C)C)NC(=O)[C@H](Cc1ccccc1)NC(=O)[C@H](C)N)C(=O)N[C@@H](CCCNC(=N)N)C(N)=O` [(S)-2-[(S)-2-((S)-2-Amino-propionylamino)-3-phenyl-propionylamino]-4-methyl-pentanoic acid [(S)-1-((S)-1-carbamoyl-4-guanidino-butylcarbamoyl)-3-methyl-butyl]-amide] (H-AFLLR-NH2) returned an EC50 of 0.8 µM. The compound `CC(C)C[C@H](NC(=O)[C@H](Cc1ccccc1)NC(=O)[C@H](C)N)C(=O)N(C)[C@@H](CC(C)C)C(=O)N[C@@H](CCCNC(=N)N)C(N)=O` [(S)-2-[(S)-2-((S)-2-Amino-propionylamino)-3-phenyl-propionylamino]-4-methyl-pentanoic acid [(S)-1-((S)-1-carbamoyl-4-guanidino-butylcarbamoyl)-3-methyl-butyl]-methyl-amide] (H-AFL[NMeL]R-NH2) displayed an EC50 of 260 µM. Against the preceding compound, the EC50 is about 320-fold higher. `CC(C)C[C@H](NC(=O)[C@H](CC(C)C)NC(=O)[C@H](CCc1ccccc1)NC(=O)[C@H](C)N)C(=O)N[C@@H](CCCNC(=N)N)C(N)=O` [(S)-2-[(S)-2-((S)-2-Amino-propionylamino)-4-phenyl-butyrylamino]-4-methyl-pentanoic acid [(S)-1-((S)-1-carbamoyl-4-guanidino-butylcarbamoyl)-3-methyl-butyl]-amide] (H-A[hPhe]LLR-NH2) gave an EC50 of more than 800 µM. As for `CC(C)C[C@H](NC(=O)[C@H](CC(C)C)NC(=O)[C@H](Cc1ccccc1)NC(=O)[C@@H](N)CO)C(=O)N[C@@H](CCCNC(=N)N)C(=O)N[C@@H](CC(N)=O)C(N)=O` [(S)-2-[(S)-2-((S)-2-{(S)-2-[(S)-2-((S)-2-Amino-3-hydroxy-propionylamino)-3-phenyl-propionylamino]-4-methyl-pentanoylamino}-4-methyl-pentanoylamino)-5-guanidino-pentanoylamino]-succinamide], a half-maximal response (EC50) required 0.2 µM. `CC(C)C[C@H](NC(=O)[C@H](CC(C)C)NC(=O)[C@H](Cc1ccc(N)cc1)NC(=O)[C@H](C)N)C(=O)N[C@@H](CCCNC(=N)N)C(N)=O` [(S)-2-[(S)-3-(4-Amino-phenyl)-2-((S)-2-amino-propionylamino)-propionylamino]-4-methyl-pentanoic acid [(S)-1-((S)-1-carbamoyl-4-guanidino-butylcarbamoyl)-3-methyl-butyl]-amide] (H-A[Phe(4-NH2)]LLR-NH2) displayed an EC50 of 235 µM. Take `CC(C)C[C@H](NC(=O)[C@H](CC(C)C)NC(=O)[C@H](Cc1ccc(CN)cc1)NC(=O)[C@H](C)N)C(=O)N[C@@H](CCCNC(=N)N)C(N)=O` [(S)-2-[(S)-3-(4-Aminomethyl-phenyl)-2-((S)-2-amino-propionylamino)-propionylamino]-4-methyl-pentanoic acid [(S)-1-((S)-1-carbamoyl-4-guanidino-butylcarbamoyl)-3-methyl-butyl]-amide] (H-A[Phe(4-CH2NH2)]LLR-NH2): the EC50 turned out to be 800 µM. The compound `CC(C)C[C@H](NC(=O)[C@H](CC(C)C)NC(=O)[C@H](Cc1ccccc1)N(C)C(=O)[C@@H](N)CO)C(=O)N[C@@H](CCCNC(=N)N)C(N)=O` [(S)-2-{(S)-2-[((S)-2-Amino-3-hydroxy-propionyl)-methyl-amino]-3-phenyl-propionylamino}-4-methyl-pentanoic acid [(S)-1-((S)-1-carbamoyl-4-guanidino-butylcarbamoyl)-3-methyl-butyl]-amide] had an EC50 of more than 800 µM. `CC(C)C[C@H](NC(=O)[C@H](CC(C)C)NC(=O)[C@H](Cc1ccccc1)NC(=O)[C@@H](N)CO)C(N)=O` [(S)-2-{(S)-2-[(S)-2-((S)-2-Amino-3-hydroxy-propionylamino)-3-phenyl-propionylamino]-4-methyl-pentanoylamino}-4-methyl-pentanoic acid amide] (H-SFLL-NH2) gave an EC50 of 185 µM. As for `CC(C)C[C@H](NC(=O)[C@H](C)NC(=O)[C@H](Cc1ccccc1)NC(=O)[C@@H](N)CO)C(=O)N[C@@H](CCCNC(=N)N)C(N)=O` [(S)-2-{(S)-2-[(S)-2-((S)-2-Amino-3-hydroxy-propionylamino)-3-phenyl-propionylamino]-propionylamino}-4-methyl-pentanoic acid ((S)-1-carbamoyl-4-guanidino-butyl)-amide] (H-SFALR-NH2), the EC50 came to 1.3 µM. In turn, `CC(C)C[C@H](NC(=O)[C@H](CCCNC(=N)N)NC(=O)[C@H](Cc1ccc(F)cc1)NC(=O)[C@H](C)N)C(=O)N[C@@H](CCCNC(=N)N)C(N)=O` [(S)-2-{(S)-2-[(S)-2-((S)-2-Amino-propionylamino)-3-(4-fluoro-phenyl)-propionylamino]-5-guanidino-pentanoylamino}-4-methyl-pentanoic acid ((S)-1-carbamoyl-4-guanidino-butyl)-amide] (H-A[Phe(4-F)]RLR-NH2) returned an EC50 of 0.13 µM. Turning to `CC(C)C[C@H](NC(=O)[C@H](Cc1ccccc1)NC(=O)[C@H](C)N)C(=O)N[C@@H](CC(C)C)C(=O)N(C)[C@@H](CCCNC(=N)N)C(N)=O` [(S)-2-{(S)-2-[(S)-2-((S)-2-Amino-propionylamino)-3-phenyl-propionylamino]-4-methyl-pentanoylamino}-4-methyl-pentanoic acid ((S)-1-carbamoyl-4-guanidino-butyl)-methyl-amide] (H-AFLL[NMeR]-NH2), the EC50 is 800 µM. Against the preceding compound, the EC50 is about 6200-fold higher.

`CC(C)C[C@H](NC(=O)[C@H](CC(C)C)NC(=O)[C@H](Cc1ccccc1)NC(=O)[C@@H](N)Cc1cnc[nH]1)C(=O)N[C@@H](CCCNC(=N)N)C(N)=O` [(S)-2-{(S)-2-[(S)-2-Amino-3-(3H-imidazol-4-yl)-propionylamino]-3-phenyl-propionylamino}-4-methyl-pentanoic acid [(S)-1-((S)-1-carbamoyl-4-guanidino-butylcarbamoyl)-3-methyl-butyl]-amide] (H-HFLLR-NH2): the EC50 amounted to 31 µM. `CC(C)C[C@H](NC(=O)[C@H](CC(C)C)NC(=O)[C@H](Cc1ccccc1)NC(=O)[C@@H](N)Cc1ccc(O)cc1)C(=O)N[C@@H](CCCNC(=N)N)C(N)=O` [(S)-2-{(S)-2-[(S)-2-Amino-3-(4-hydroxy-phenyl)-propionylamino]-3-phenyl-propionylamino}-4-methyl-pentanoic acid [(S)-1-((S)-1-carbamoyl-4-guanidino-butylcarbamoyl)-3-methyl-butyl]-amide] (H-YFLLR-NH2): the EC50 was determined as 400 µM. The figure for `CC(C)C[C@H](NC(=O)[C@H](CC(C)C)N(C)C(=O)[C@H](Cc1ccccc1)NC(=O)[C@@H](N)CO)C(=O)N[C@@H](CCCNC(=N)N)C(N)=O` [(S)-2-{[(S)-2-((S)-2-Amino-3-hydroxy-propionylamino)-3-phenyl-propionyl]-methyl-amino}-4-methyl-pentanoic acid [(S)-1-((S)-1-carbamoyl-4-guanidino-butylcarbamoyl)-3-methyl-butyl]-amide] is 350 µM.

These data come from BindingDB's records for doi:10.1021/jm00020a029 (Merck Research Laboratories, 1995).
